Source: US8802597B2, “Herbicidal pyrimidines” (E I du Pont de Nemours and Company, priority 2003, dated 2014)
Read-outs that look alike come from different tables or passages of the source.

What was measured:
[1] = test system: crabgrass (Digitaria sanguinalis); test: Test C pre/postemergence; type: in vivo; details: Digitaria sanguinalis; for pest or weed control at 31 g/ha: 31 g ai/ha; for pest or weed control at 62 g/ha: 62 g ai/ha; for pest or weed control at 125 g/ha: 125 g ai/ha; for pest or weed control at 250 g/ha: 250 g ai/ha
Method in brief: (§1)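 Test compounds, formulated in a non-phytotoxic solvent mix with surfactant, were applied to freshly planted seeds and, at the same time, to emerged plants at 1- to 4-leaf stage (2 to 18 cm). After 12 to 14 days in the greenhouse, response was scored visually versus controls, 0 = no effect, 100 = complete control.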

soybean (Glycine max) = test: Test C pre/postemergence; type: in vivo; details: Glycine max; for plant injury at 31 g/ha: 31 g ai/ha; for plant injury at 62 g/ha: 62 g ai/ha; for plant injury at 125 g/ha: 125 g ai/ha; for plant injury at 250 g/ha: 250 g ai/ha
Method in brief: as §1

[2] = test system: yellow nutsedge (Cyperus esculentus); test: Test C pre/postemergence; type: in vivo; details: Cyperus; for pest or weed control at 31 g/ha: 31 g ai/ha; for pest or weed control at 62 g/ha: 62 g ai/ha; for pest or weed control at 125 g/ha: 125 g ai/ha; for pest or weed control at 250 g/ha: 250 g ai/ha
Method in brief: as §1

rice (Oryza sativa) = test: Test C flooded paddy test; type: in vivo; details: Flood, scale 0 to 100
Method in brief: (§2)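 Visual rating, 0 (no effect) to 100 (complete control), versus untreated plants. Flooded paddy; 2-leaf stage at treatment; greenhouse hold 12–14 d. Dash = no test result.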

[3] = test system: duck salad (Heteranthera limosa); test: Test C flooded paddy test; type: in vivo; details: Flood, scale 0 to 100
Method in brief: as §2

[4] = test system: barnyardgrass (Echinochloa crus-galli); test: Test C flooded paddy test; type: in vivo; details: Flood
Method in brief: as §2

[5] = test system: umbrella sedge (Cyperus difformis); test: Test C flooded paddy test; type: in vivo; details: Flood, scale 0 to 100
Method in brief: as §2

[6] = test system: wheat (Triticum aestivum); test: Test C postemergence; type: in vivo
Method in brief: as §1

[7] = test system: canarygrass (Phalaris minor); test: Test C postemergence; type: in vivo; details: for Plant response rating, Canarygrass: scale 0 to 100
Method in brief: as §1

[8] = test system: downy brome (Bromus tectorum); test: Test C postemergence; type: in vivo; details: for Plant response rating, Bromegrass, Downy: scale 0 to 100
Method in brief: as §1

[9] = test system: green foxtail (Setaria viridis); test: Test C postemergence; type: in vivo
Method in brief: as §1

[10] = test system: Italian ryegrass (Lolium multiflorum); test: Test C postemergence; type: in vivo
Method in brief: as §1

[11] = test system: winter barley (Hordeum vulgare); test: Test C postemergence; type: in vivo; details: for Plant response rating, Barley: scale 0 to 100
Method in brief: as §1

[12] = test system: blackgrass (Alopecurus myosuroides); test: Test C postemergence; type: in vivo; details: for Plant response rating, Blackgrass: scale 0 to 100
Method in brief: as §1

[13] = test system: windgrass (Apera spica-venti); test: Test C postemergence; type: in vivo
Method in brief: as §1

wild oat (Avena fatua) = test: Test C postemergence; type: in vivo
Method in brief: as §1

[14] = post-emergence, Postemergence, scale 0 to 100 (0 no effect, 100 complete control), read-out: Crabgrass plant response rating
[15] = pre-emergence, Preemergence, scale 0 to 100, 0 no effect, 100 complete control, read-out: Plant response rating, Crabgrass
[16] = pre-emergence, Preemergence, scale 0 to 100, read-out: Plant response rating, Crabgrass
[17] = post-emergence, Postemergence, scale 0 to 100 (0 no effect, 100 complete control), read-out: Soybean plant response rating
[18] = pre-emergence, Preemergence, scale 0 to 100, 0 no effect, 100 complete control, read-out: Plant response rating, Soybean
[19] = pre-emergence, Preemergence, scale 0 to 100, read-out: Plant response rating, Soybean
[20] = post-emergence, Postemergence, scale 0 to 100 (0 no effect, 100 complete control), read-out: Nutsedge, Yellow plant response rating
[21] = pre-emergence, Preemergence, scale 0 to 100, 0 no effect, 100 complete control, read-out: Plant response rating, Nutsedge, Yellow
[22] = pre-emergence, Preemergence, scale 0 to 100, read-out: Plant response rating, Nutsedge, Yellow

SMILES: COC(=O)c1nc(C2CC2)nc(N)c1Br [Compound 2, methyl 6-amino-5-bromo-2-cyclopropyl-4-pyrimidinecarboxylate]
- melting point: 148 to 150 °C
- pest or weed control at 31 g/ha ([1]; post-emergence, Postemergence, read-out: Plant response rating (scale of 0 to 100), Crabgrass): 40%
- pest or weed control at 62 g/ha [1, 14]: 55%
- pest or weed control at 125 g/ha [1, 14]: 60%
- pest or weed control at 250 g/ha ([1]; post-emergence, Postemergence, scale 0 to 100, read-out: Plant response rating, Crabgrass): 70%
- pest or weed control at 31 g/ha [1, 15]: 0%
- pest or weed control at 62 g/ha [1, 15]: 0%
- pest or weed control at 125 g/ha [1, 16]: 0%
- pest or weed control at 250 g/ha [1, 16]: 50%
- plant injury at 31 g/ha (soybean (Glycine max); post-emergence, Postemergence, read-out: Plant response rating (scale of 0 to 100), Soybean): 100%
- plant injury at 62 g/ha (soybean (Glycine max); [17]): 100%
- plant injury at 125 g/ha (soybean (Glycine max); [17]): 100%
- plant injury at 250 g/ha (soybean (Glycine max); post-emergence, Postemergence, scale 0 to 100, read-out: Plant response rating, Soybean): 100%
- plant injury at 31 g/ha (soybean (Glycine max); [18]): 15%
- plant injury at 62 g/ha (soybean (Glycine max); [18]): 75%
- plant injury at 125 g/ha (soybean (Glycine max); [19]): 90%
- plant injury at 250 g/ha (soybean (Glycine max); [19]): 100%
- pest or weed control at 31 g/ha ([2]; post-emergence, Postemergence, read-out: Plant response rating (scale of 0 to 100), Nutsedge, Yellow): 0%
- pest or weed control at 62 g/ha [2, 20]: 0%
- pest or weed control at 125 g/ha [2, 20]: 0%
- pest or weed control at 250 g/ha ([2]; post-emergence, Postemergence, scale 0 to 100, read-out: Plant response rating, Nutsedge, Yellow): 20%
- pest or weed control at 31 g/ha [2, 21]: 0%
- pest or weed control at 62 g/ha [2, 21]: 0%
- pest or weed control at 125 g/ha [2, 22]: 0%
- pest or weed control at 250 g/ha [2, 22]: 0%
- Plant response rating, Rice (rice (Oryza sativa); 62 g ai/ha): 0
- Plant response rating, Rice (rice (Oryza sativa); 125 g ai/ha): 25
- Plant response rating, Rice (rice (Oryza sativa); 250 g ai/ha): 45
- Plant response rating, Rice (rice (Oryza sativa); 500 g ai/ha): 65
- Plant response rating, Ducksalad ([3]; 62 g ai/ha): 50
- Plant response rating, Ducksalad ([3]; 125 g ai/ha): 70
- Plant response rating, Ducksalad ([3]; 250 g ai/ha): 90
- Plant response rating, Ducksalad ([3]; 500 g ai/ha): 95
- Plant response rating, Barnyardgrass ([4]; 62 g ai/ha, scale 0 to 100): 0
- Plant response rating, Barnyardgrass ([4]; 125 g ai/ha, scale 0 to 100): 20
- Plant response rating, Barnyardgrass ([4]; 250 g ai/ha, scale 0 to 100): 45
- Plant response rating, Barnyardgrass ([4]; 500 g ai/ha, scale 0 to 100 (0 no effect, 100 complete control)): 75
- Plant response rating, Sedge, Umbrella ([5]; 62 g ai/ha): 0
- Plant response rating, Sedge, Umbrella ([5]; 125 g ai/ha): 0
- Plant response rating, Sedge, Umbrella ([5]; 250 g ai/ha): 0
- Plant response rating, Sedge, Umbrella ([5]; 500 g ai/ha): 25
- Plant response rating (scale of 0 to 100), Wheat ([6]; 31 g ai/ha): 20
- Plant response rating, Wheat ([6]; 250 g ai/ha, scale 0 to 100): 65
- plant injury at 62 g/ha ([6]; Triticum aestivum, post-emergence, 62 g ai/ha, scale 0 to 100 (0 no effect, 100 complete control), read-out: Wheat plant response rating): 60%
- plant injury at 125 g/ha ([6]; Triticum aestivum, post-emergence, 125 g ai/ha, scale 0 to 100 (0 no effect, 100 complete control), read-out: Wheat plant response rating): 65%
- Plant response rating (scale of 0 to 100), Canarygrass ([7]; 31 g ai/ha): 30
- Plant response rating, Canarygrass ([7]; 125 g ai/ha): 40
- Plant response rating, Canarygrass ([7]; 250 g ai/ha): 40
- pest or weed control at 62 g/ha ([7]; Phalaris minor, post-emergence, 62 g ai/ha, scale 0 to 100 (0 no effect, 100 complete control), read-out: Canarygrass plant response rating): 40%
- Plant response rating (scale of 0 to 100), Bromegrass, Downy ([8]; 31 g ai/ha): 20
- Plant response rating, Bromegrass, Downy ([8]; 125 g ai/ha): 45
- Plant response rating, Bromegrass, Downy ([8]; 250 g ai/ha): 60
- pest or weed control at 62 g/ha ([8]; Bromus tectorum, post-emergence, 62 g ai/ha, scale 0 to 100 (0 no effect, 100 complete control), read-out: Bromegrass, Downy plant response rating): 35%
- Plant response rating (scale of 0 to 100), Foxtail, Green ([9]; 31 g ai/ha): 55
- Plant response rating, Foxtail, Green ([9]; 250 g ai/ha, scale 0 to 100): 70
- pest or weed control at 62 g/ha ([9]; Setaria viridis, post-emergence, 62 g ai/ha, scale 0 to 100 (0 no effect, 100 complete control), read-out: Foxtail, Green plant response rating): 55%
- pest or weed control at 125 g/ha ([9]; Setaria viridis, post-emergence, 125 g ai/ha, scale 0 to 100 (0 no effect, 100 complete control), read-out: Foxtail, Green plant response rating): 65%
- Plant response rating (scale of 0 to 100), Ryegrass, Italian ([10]; 31 g ai/ha): 35
- Plant response rating, Ryegrass, Italian ([10]; 250 g ai/ha, scale 0 to 100): 60
- pest or weed control at 62 g/ha ([10]; Lolium multiflorum, post-emergence, 62 g ai/ha, scale 0 to 100 (0 no effect, 100 complete control), read-out: Ryegrass, Italian plant response rating): 45%
- pest or weed control at 125 g/ha ([10]; Lolium multiflorum, post-emergence, 125 g ai/ha, scale 0 to 100 (0 no effect, 100 complete control), read-out: Ryegrass, Italian plant response rating): 60%
- Plant response rating (scale of 0 to 100), Barley ([11]; 31 g ai/ha): 0
- Plant response rating, Barley ([11]; 125 g ai/ha): 60
- Plant response rating, Barley ([11]; 250 g ai/ha): 60
- plant injury at 62 g/ha ([11]; Hordeum vulgare, post-emergence, 62 g ai/ha, scale 0 to 100 (0 no effect, 100 complete control), read-out: Barley plant response rating): 35%
- Plant response rating (scale of 0 to 100), Blackgrass ([12]; 31 g ai/ha): 60
- Plant response rating, Blackgrass ([12]; 125 g ai/ha): 70
- Plant response rating, Blackgrass ([12]; 250 g ai/ha): 75
- pest or weed control at 62 g/ha ([12]; Alopecurus myosuroides, post-emergence, 62 g ai/ha, scale 0 to 100 (0 no effect, 100 complete control), read-out: Blackgrass plant response rating): 65%
- Plant response rating (scale of 0 to 100), Windgrass ([13]; 31 g ai/ha): 65
- Plant response rating, Windgrass ([13]; 250 g ai/ha, scale 0 to 100): 70
- pest or weed control at 62 g/ha ([13]; Apera spica-venti, post-emergence, 62 g ai/ha, scale 0 to 100 (0 no effect, 100 complete control), read-out: Windgrass plant response rating): 65%
- pest or weed control at 125 g/ha ([13]; Apera spica-venti, post-emergence, 125 g ai/ha, scale 0 to 100 (0 no effect, 100 complete control), read-out: Windgrass plant response rating): 70%
- Plant response rating (scale of 0 to 100), Oat, Wild (wild oat (Avena fatua); 31 g ai/ha): 20
- Plant response rating, Oat, Wild (wild oat (Avena fatua); 250 g ai/ha, scale 0 to 100): 60
- pest or weed control at 62 g/ha (wild oat (Avena fatua); Avena fatua, post-emergence, 62 g ai/ha, scale 0 to 100 (0 no effect, 100 complete control), read-out: Oat, Wild plant response rating): 55%
- pest or weed control at 125 g/ha (wild oat (Avena fatua); Avena fatua, post-emergence, 125 g ai/ha, scale 0 to 100 (0 no effect, 100 complete control), read-out: Oat, Wild plant response rating): 55%
